Experimental data: PubChem BioAssay AID220 (DTP/NCI, 2004)
“And” between values parts separate entries of the source, which are not always exact repeats. Identical values can stand only once. Records with an inconclusive call do not appear.

Test system: CD8F1 mice, subcutaneous mammary adenocarcinoma, T/C%
Assay: NCI In Vivo Anticancer Drug Screen. Data for tumor model Mammary Adenocarcinoma CD8F1 (subcutaneous) in CD8F1
Settings: higher = larger tumour
Summary of the method: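 Transplantable tumors were established in mice, animals were dosed with compound or vehicle, and survival or tumor size was then measured in both groups. The treated result was divided by the control result.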

[1] = endpoint: median tumor weight (est.), dose: 25.0 mg/kg/injection, schedule: Q07DX005 (ip), vehicle: saline
[2] = endpoint: median tumor weight (est.), dose: 50.0 mg/kg/injection, schedule: Q07DX005 (ip), vehicle: saline
[3] = endpoint: median tumor weight change, dose: 100.0 mg/kg/injection, schedule: Q01DX001 (ip), vehicle: saline
[4] = endpoint: median tumor weight (est.), dose: 12.5 mg/kg/injection, schedule: Q07DX005 (ip), vehicle: saline with Tween-80
[5] = endpoint: median tumor weight (est.), dose: 25.0 mg/kg/injection, schedule: Q07DX005 (ip), vehicle: saline with Tween-80
[6] = endpoint: median tumor weight (est.), dose: 50.0 mg/kg/injection, schedule: Q07DX005 (ip), vehicle: saline with Tween-80
[7] = endpoint: median tumor weight (est.), dose: 100.0 mg/kg/injection, schedule: Q07DX005 (ip), vehicle: saline with Tween-80
[8] = endpoint: median tumor weight (est.), dose: 200.0 mg/kg/injection, schedule: Q07DX005 (ip), vehicle: saline with Tween-80
[9] = endpoint: median tumor weight (est.), dose: 0.5 mg/kg/injection, schedule: Q07DX005 (ip), vehicle: saline
[10] = endpoint: median tumor weight (est.), dose: 1.0 mg/kg/injection, schedule: Q07DX005 (ip), vehicle: saline
[11] = endpoint: median tumor weight (est.), dose: 2.0 mg/kg/injection, schedule: Q07DX005 (ip), vehicle: saline
[12] = endpoint: median tumor weight (est.), dose: 4.0 mg/kg/injection, schedule: Q07DX005 (ip), vehicle: saline
[13] = endpoint: median tumor weight (est.), dose: 400.0 mg/kg/injection, schedule: Q07DX005 (ip), vehicle: saline with Tween-80
[14] = endpoint: median tumor weight change, dose: 25.0 mg/kg/injection, schedule: Q01DX001 (ip), vehicle: saline
[15] = endpoint: median tumor weight (est.), dose: 3.12 mg/kg/injection, schedule: Q07DX005 (ip), vehicle: saline
[16] = endpoint: median tumor weight (est.), dose: 12.5 mg/kg/injection, schedule: Q07DX005 (ip), vehicle: saline

With Nc1ncnc2c1ncn2C1OC(CO)C(O)C1O (configuration not stated) the T/C (endpoint: median tumor weight (est.), dose: 16.0 mg/kg/injection, schedule: Q07DX005 (ip), vehicle: Klucel (hydroxypropylcellulose) (HPC)) was 103 % of control, the T/C (endpoint: median tumor weight (est.), dose: 37.5 mg/kg/injection, schedule: Q07DX005 (ip), vehicle: saline) was 47 % of control and the T/C (endpoint: median tumor weight (est.), dose: 75.0 mg/kg/injection, schedule: Q07DX005 (ip), vehicle: saline) was 33 % of control. The T/C (endpoint: median tumor weight (est.), dose: 128.0 mg/kg/injection, schedule: Q07DX005 (ip), vehicle: Klucel (hydroxypropylcellulose) (HPC)) was 83 % of control and 99 % of control, the T/C (endpoint: median tumor weight (est.), dose: 150.0 mg/kg/injection, schedule: Q07DX005 (ip), vehicle: saline) was 47 % of control and the T/C (endpoint: median tumor weight (est.), dose: 300.0 mg/kg/injection, schedule: Q07DX005 (ip), vehicle: saline) was 88 % of control. For the same compound, the T/C (endpoint: median tumor weight (est.), dose: 600.0 mg/kg/injection, schedule: Q07DX005 (ip), vehicle: saline) was 71 % of control and the T/C (endpoint: median tumor weight (est.), dose: 1200.0 mg/kg/injection, schedule: Q07DX005 (ip), vehicle: saline) was 60 % of control.

For O=C(O)CC(NC(=O)CP(=O)(O)O)C(=O)O (configuration not stated), the T/C [1] was 92 % of control, the T/C [2] was 94 % of control and the T/C (endpoint: median tumor weight (est.), dose: 100.0 mg/kg/injection, schedule: Q07DX005 (ip), vehicle: saline) was 62 % of control. For the same compound, the T/C (endpoint: median tumor weight (est.), dose: 200.0 mg/kg/injection, schedule: Q07DX005 (ip), vehicle: saline) was 56 % of control, the T/C (endpoint: median tumor weight (est.), dose: 400.0 mg/kg/injection, schedule: Q07DX005 (ip), vehicle: saline) was 9 % of control and the T/C [3] was 81 % of control. The T/C (endpoint: median tumor weight change, dose: 200.0 mg/kg/injection, schedule: Q01DX001 (ip), vehicle: saline) was 92 % of control, the T/C (endpoint: median tumor weight change, dose: 400.0 mg/kg/injection, schedule: Q01DX001 (ip), vehicle: saline) was 85 % of control and the T/C (endpoint: median tumor weight change, dose: 800.0 mg/kg/injection, schedule: Q01DX001 (ip), vehicle: saline) was 66 % of control.

With CS(=O)(=O)c1ncc(Br)cn1 the T/C (endpoint: median tumor weight (est.), dose: 6.25 mg/kg/injection, schedule: Q07DX005 (ip), vehicle: saline with Tween-80) was 242 % of control, the T/C [4] was 405 % of control and the T/C [5] was 222 % of control. The T/C [6] was 286 % of control, the T/C [7] was 348 % of control and the T/C [8] was 311 % of control.

COc1cccc2c1C(=O)c1c(O)c3c(c(O)c1C2=O)C[C@@](O)(C(=O)COC(=O)c1cccnc1)C[C@@H]3OC1CC(N)C(O)C(C)O1 (some centres not stated) was tested, and the T/C (endpoint: mean tumor weight, dose: 0.5 mg/kg/injection, schedule: Q07DX006 (ip), vehicle: saline) was 114 % of control, the T/C (endpoint: mean tumor weight, dose: 1.0 mg/kg/injection, schedule: Q07DX006 (ip), vehicle: saline) was 53 % of control and the T/C (endpoint: mean tumor weight, dose: 2.0 mg/kg/injection, schedule: Q07DX006 (ip), vehicle: saline) was 25 % of control. The T/C [9] was 121 % of control, the T/C [10] was 92 % of control and the T/C [11] was 72 % of control and 75 % of control. The T/C [12] was 90 % of control.

COC1=C(OC)C(=O)C(C/C=C(\C)CC/C=C(\C)CC/C=C(\C)CC/C=C(\C)CC/C=C(\C)CC/C=C(\C)CC/C=C(\C)CC/C=C(\C)CC/C=C(\C)CCC=C(C)C)=C(C)C1=O was tested, and the T/C [4] was 59 % of control, the T/C [5] was 67 % of control and the T/C [6] was 47 % of control. For the same compound, the T/C [7] was 93 % of control, the T/C [8] was 122 % of control and the T/C [13] was 76 % of control.

With Cc1ccc2c(c1)C(=O)N(CC[P+](c1ccccc1)(c1ccccc1)c1ccccc1)C2=O the T/C (endpoint: mean tumor weight, dose: 1.56 mg/kg/injection, schedule: Q07DX006 (ip), vehicle: water) was 90 % of control, the T/C (endpoint: mean tumor weight, dose: 6.25 mg/kg/injection, schedule: Q07DX006 (ip), vehicle: water) was 96 % of control and the T/C (endpoint: median tumor weight (est.), dose: 3.12 mg/kg/injection, schedule: Q07DX005 (ip), vehicle: water) was 56 % of control. The T/C (endpoint: median tumor weight (est.), dose: 6.25 mg/kg/injection, schedule: Q07DX005 (ip), vehicle: water) was 111 % of control.

In the case of C(=N/NC1=NCCN1)/c1c2ccccc2c(/C=N\NC2=NCCN2)c2ccccc12, the T/C [14] was 78 % of control, the T/C (endpoint: median tumor weight change, dose: 50.0 mg/kg/injection, schedule: Q01DX001 (ip), vehicle: saline) was 101 % of control and the T/C [3] was 37 % of control.

With CCO/C=C1\SC(=S)N(c2ccccc2C)C1=O the T/C [4] was 106 % of control, the T/C [7] was 115 % of control and the T/C [8] was 95 % of control. For the same compound, the T/C [13] was 67 % of control.

In the case of C1OC1CN1CCN(CC2CO2)CC1 (configuration not stated), the T/C [15] was 72 % of control and 80 % of control, the T/C [16] was 24 % of control and 38 % of control and the T/C [1] was 24 % of control and 28 % of control. The T/C [2] was 1 % of control and 4 % of control.

O=C1C=CC(=O)O1 (tested in a mixture with another compound) was tested, and the T/C (endpoint: median tumor weight (est.), dose: 25.0 mg/kg/injection, schedule: Q07DX004 (ip), vehicle: saline) was 76 % of control, the T/C (endpoint: median tumor weight (est.), dose: 50.0 mg/kg/injection, schedule: Q07DX004 (ip), vehicle: saline) was 61 % of control and the T/C (endpoint: median tumor weight (est.), dose: 100.0 mg/kg/injection, schedule: Q07DX004 (ip), vehicle: saline) was 40 % of control. The T/C (endpoint: median tumor weight (est.), dose: 200.0 mg/kg/injection, schedule: Q07DX004 (ip), vehicle: saline) was 81 % of control and the T/C (endpoint: median tumor weight (est.), dose: 400.0 mg/kg/injection, schedule: Q07DX004 (ip), vehicle: saline) was 94 % of control.

In the case of OCC1OC(n2cnc3cncnc32)C(O)C1O (configuration not stated), the T/C [15] was 114 % of control, the T/C (endpoint: median tumor weight (est.), dose: 6.25 mg/kg/injection, schedule: Q07DX005 (ip), vehicle: saline) was 59 % of control and the T/C [16] was 65 % of control.

With COc1cc([C@@H]2c3cc4c(c(O)c3C[C@H]3COC(=O)[C@@H]32)OCO4)cc(OC)c1O the T/C [9] was 275 % of control, the T/C [10] was 85 % of control and the T/C [11] was 56 % of control. For the same compound, the T/C [12] was 26 % of control and the T/C (endpoint: median tumor weight (est.), dose: 8.0 mg/kg/injection, schedule: Q07DX005 (ip), vehicle: saline) was 27 % of control.

For C[CH2][Pb]([CH2]C)([CH2]C)[O]C(=O)COc1ccccc1, the T/C (endpoint: mean tumor weight, dose: 0.75 mg/kg/injection, schedule: Q01DX009 (ip), vehicle: saline) was 112 % of control, the T/C (endpoint: mean tumor weight, dose: 0.75 mg/kg/injection, schedule: Q07DX009 (ip), vehicle: saline) was 398 % of control and the T/C (endpoint: mean tumor weight, dose: 1.5 mg/kg/injection, schedule: Q01DX009 (ip), vehicle: saline) was 57 % of control. The T/C (endpoint: mean tumor weight, dose: 1.5 mg/kg/injection, schedule: Q07DX009 (ip), vehicle: saline) was 192 % of control, the T/C (endpoint: mean tumor weight, dose: 3.0 mg/kg/injection, schedule: Q01DX009 (ip), vehicle: saline) was 73 % of control and the T/C (endpoint: mean tumor weight, dose: 3.0 mg/kg/injection, schedule: Q07DX009 (ip), vehicle: saline) was 172 % of control. The T/C (endpoint: mean tumor weight, dose: 6.0 mg/kg/injection, schedule: Q07DX009 (ip), vehicle: saline) was 165 % of control.

For CC(C)=CCNc1ncnc2c1ncn2C1OC(CO)C(O)C1O (configuration not stated), the T/C [4] was 78 % of control, the T/C [5] was 84 % of control and the T/C [6] was 113 % of control. The T/C [7] was 85 % of control and the T/C [8] was 82 % of control.

With C[C@@](O)(/C=C/[C@H]1CC=CC(=O)O1)[C@@H](C[C@@H](O)\C=C/C=C\C=C\CO)OP(=O)(O)O the T/C (endpoint: median tumor weight change, dose: 15.62 mg/kg/injection, schedule: Q01DX001 (ip), vehicle: other) was 99 % of control, the T/C (endpoint: median tumor weight change, dose: 31.25 mg/kg/injection, schedule: Q01DX001 (ip), vehicle: other) was 83 % of control and the T/C (endpoint: median tumor weight change, dose: 62.5 mg/kg/injection, schedule: Q01DX001 (ip), vehicle: other) was 42 % of control.

In the case of [Cl][Sn]([c]1ccccc1)[c]1ccccc1, the T/C (endpoint: median tumor weight change, dose: 1.56 mg/kg/injection, schedule: Q01DX001 (ip), vehicle: saline) was 81 % of control, the T/C (endpoint: median tumor weight change, dose: 3.12 mg/kg/injection, schedule: Q01DX001 (ip), vehicle: saline) was 63 % of control and the T/C (endpoint: median tumor weight change, dose: 6.25 mg/kg/injection, schedule: Q01DX001 (ip), vehicle: saline) was 94 % of control. For the same compound, the T/C (endpoint: median tumor weight change, dose: 12.5 mg/kg/injection, schedule: Q01DX001 (ip), vehicle: saline) was 81 % of control, the T/C [14] was 78 % of control and the T/C (endpoint: median tumor weight change, dose: 25.0 mg/kg/injection, schedule: Q01DX001 (ip), vehicle: water) was 47 % of control.

For NC(CCC(=O)NC(CS)C(=O)NCC(=O)O)C(=O)O (configuration not stated), the T/C (endpoint: median tumor weight change, dose: 125.0 mg/kg/injection, schedule: Q01DX001 (ip), vehicle: saline) was 74 % of control and the T/C (endpoint: median tumor weight change, dose: 500.0 mg/kg/injection, schedule: Q01DX001 (ip), vehicle: saline) was 82 % of control.
